Data taken from BindingDB's records for doi:10.1021/bi049459m (University of Florida College of Medicine, 2004).

How the values were obtained:
Assay in all cases: Protease Inhibition Assay
[1] = target: T1, Dimer of Gag-Pol polyprotein [489-587,K509R,V521I,L522F,M525I,L552P,A560V,V571A,L579M] (Human immunodeficiency virus 1, UniProt P04585, A560V/K509R/L522F/L552P/L579M/M525I/V521I/V571A); conditions: pH 4.7; 37 °C
T1 construct: 489-587

[2] = target: T2, Dimer of Gag-Pol polyprotein [489-587,K509R,V521I,L522F,M525I,I543V,L552P,A560V,V571A,I573V,L579M] (Human immunodeficiency virus 1, UniProt P04585, A560V/I543V/I573V/K509R/L522F/L552P/L579M/M525I/V521I/V571A)
T2 construct: 489-587

[3] = target: T3, Dimer of Gag-Pol polyprotein [489-587,K509R,V521I,L522F,M525I,M535I,L552P,A560V,V571A,L579M] (Human immunodeficiency virus 1, UniProt P04585, A560V/K509R/L522F/L552P/L579M/M525I/M535I/V521I/V571A); conditions: pH 4.7; 37 °C
T3 construct: 489-587

[4] = target: T4, Dimer of Gag-Pol polyprotein [489-587] (Human immunodeficiency virus 1, UniProt P04585); conditions: pH 4.7; 37 °C
T4 construct: 489-587

[5] = target: T5, Dimer of Gag-Pol polyprotein [489-587,K509R,V521I,L522F,M525I,I543V,L552P,A560V,V571A,L579M] (Human immunodeficiency virus 1, UniProt P04585, A560V/I543V/K509R/L522F/L552P/L579M/M525I/V521I/V571A); conditions: pH 4.7; 37 °C
T5 construct: 489-587

[6] = target: T6, Dimer of Gag-Pol polyprotein [489-587,K509R,V521I,L522F,M525I,M535I,L552P,A560V,V571A,I573V,L579M] (Human immunodeficiency virus 1, UniProt P04585, A560V/I573V/K509R/L522F/L552P/L579M/M525I/M535I/V521I/V571A)
T6 construct: 489-587

[7] = target: T7, Dimer of Gag-Pol polyprotein [489-587,K509R,V521I,L522F,M525I,M535I,I543V,L552P,A560V,V571A,I573V,L579M] (Human immunodeficiency virus 1, UniProt P04585, A560V/I543V/I573V/K509R/L522F/L552P/L579M/M525I/M535I/V521I/V571A)
T7 construct: 489-587

[8] = target: T8, Dimer of Gag-Pol polyprotein [489-587,K509R,V521I,L522F,M525I,L552P,A560V,V571A,I573V,L579M] (Human immunodeficiency virus 1, UniProt P04585, A560V/I573V/K509R/L522F/L552P/L579M/M525I/V521I/V571A)
T8 construct: 489-587

Cc1ccccc1CNC(=O)[C@H]1N(C(=O)[C@@H](O)[C@H](Cc2ccccc2)NC(=O)c2cccc(O)c2C)CSC1(C)C [AG1776]
Ki [1]: 0.04 nM
Ki [2]: 9.4 nM
Ki [3]: 0.5 nM
Ki [4]: 0.021 nM
Ki [5]: 0.19 nM
Ki [6]: 2.2 nM
Ki [7]: 5.6 nM
Ki [8]: 0.55 nM
